Test results: paper PMC12164071, “Lysine targeting covalent inhibitors of malarial kinase PfCLK3” (RSC Medicinal Chemistry, 2025)
Like-named read-outs stand apart in the source and are kept apart here.

How the values were obtained:
human (h)CLK2 = human (h)CLK2 (Homo sapiens, UniProt P49760); assay: Selectivity kinase assay against hCLK2; format: biochemical; details: for IC50: errors SD, N ≥ 3
Source text: Given this work aims to target a conserved residue, selectivity must be derived from the reversible ligand rather than the covalent interaction.

[1] = Human cell viability assay (resazurin); details: HepG2, 48 hours, errors SD, N ≥ 3
Experimental: Cytotoxicity was assessed in HepG2 cells to complement the selectivity evaluations (Fig. 7). […]
Human cell viability assay.
Mycoplasma tested HepG2 cells were cultured in Dulbecco’s Modified Eagle Medium
(DMEM) with 10% fetal bovine serum, 1% non-essential AA, 1% sodium pyruvate, 1% Pen-
strep and 100ug/mL Normocin. Cultures were incubated at 37 ℃, 5% CO2. Cells were
detached using 0.05% trypsin-EDTA. 500nL of drug compound dilutions, in triplicate, were
added to 384-well, black, clear bottom assay plates using a Mosquito liquid handling
machine. Assay plates, containing compound dilutions, were seeded at 5,000 cells/well and
incubated for 48 hours. 40uM final concentration resazurin, diluted in DPBS, was added to
the assay plates which were then incubated for 4 hours and analysed using a ClariostarTM
plate reader to measure fluorescence Intensity (545-20nm/600-40nm). 3 control compounds
were included on every assay plate, Tamoxifen, Puromycin and TCMDC-135051. Maximum
signal control was obtained from wells with DMSO only and minimum signal control with
Tamoxifen 100uM. These were used to normalise data and give percentage inhibition of
metabolic activity. Experiments were performed N=3 and normalised data was grouped and a
nonlinear regression curve with four parameters was plotted using GraphPad Prism,
generating activity data. […]

PfCLK3 = assay: Tryptic digest and tandem mass spectrometry of PfCLK3 adducts; format: binding, Plasmodium falciparum; details: PfCLK3 pretreated with compound, trypsin digest, tandem MS
Source text: PfCLK3 pretreated with either compound 4 or 9 was then digested with trypsin, and the resulting tryptic peptides analysed by tandem mass spectrometry (Fig. 4d and e). This subset of compounds sampled azaindole regioisomers as well as both aldehyde warheads used. […] However, possible modification of a peptide containing Lys494 and Lys503 was also observed. This is a curious result, as a secondary adduct was not observed in the intact spectrum. Lys503 is distal from the ATP binding site, whereas Lys494 lies at its entrance. Adduct formation may be occurring with Lys494 as 4 approaches the binding-site.
This is consistent with the intact mass spectrum, which detected a doubly modified species in ∼20% abundance versus the singly modified protein. […]
For intact protein mass spectrometry, compounds were incubated with a 5-fold excess of compound in buffer containing 20 mM HEPES pH 7.4, 150 mM NaCl, 1 mM TCEP, and 1 mM MgCl 2. […] Samples were incubated at room temperature for 4 hours before 10 μL alliquots were analysed by LC-MS. […]
The resulting peptide mixture was analyzed by high resolution nESI FT-ICR MS using a 12 Telsa Solarix 2XR mass spectrometer (Bruker Daltonics) equipped with a nanomate infusion robot (Advion Biosciences). […]

Sequence of human (h)CLK2 (P49760 whole entry): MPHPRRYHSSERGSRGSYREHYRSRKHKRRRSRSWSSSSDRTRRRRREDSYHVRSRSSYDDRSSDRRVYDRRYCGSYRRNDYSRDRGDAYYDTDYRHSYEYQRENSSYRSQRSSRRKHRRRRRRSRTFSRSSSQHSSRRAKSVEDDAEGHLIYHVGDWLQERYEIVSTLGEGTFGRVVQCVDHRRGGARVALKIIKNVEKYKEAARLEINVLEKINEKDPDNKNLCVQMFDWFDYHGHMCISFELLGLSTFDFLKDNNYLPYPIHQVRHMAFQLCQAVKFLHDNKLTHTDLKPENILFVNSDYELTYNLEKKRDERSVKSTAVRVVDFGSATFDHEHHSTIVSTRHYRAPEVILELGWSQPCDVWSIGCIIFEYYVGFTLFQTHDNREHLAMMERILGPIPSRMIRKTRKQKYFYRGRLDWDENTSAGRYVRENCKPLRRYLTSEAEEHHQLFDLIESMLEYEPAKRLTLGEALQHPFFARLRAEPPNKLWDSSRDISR

Compound: CCN(CC)Cc1ccc(OC)c(-c2cc3c(-c4ccc(O)c(C=O)c4)ccnc3[nH]2)c1 [Compound 4]
- IC50 (human (h)CLK2; read-out: IC50 (hCLK2)): 0.104 ± 0.037 µM
- CC50 at 48 h ([1]; CC50 (HepG2)): 5.25 ± 2.47 µM
- CC50 at 48 h ([1]; pCC50 (HepG2)): 5.25 µM
- site of modification (PfCLK3): Lys394 was the predominant site of modification

Compound: C#Cc1ccc(-c2c[nH]c3ncc(-c4cc(CN(CC)CC)ccc4OC)cc23)cc1C=O [Compound 9]
- IC50 (human (h)CLK2; read-out: pIC50 (hCLK2) (converted)): 0.0166 µM
- fold more potent against hCLK2 than parent S1 (human (h)CLK2; relative to S1): 31 fold
- CC50 at 48 h ([1]; CC50 (HepG2)): 7.94 ± 1.29 µM
- CC50 at 48 h ([1]; pCC50 (HepG2)): 7.94 µM
- site of modification (PfCLK3): pyridinium modification was observed in peptides containing both the target Lys394, and Lys373
